From patent US20050150764A1 (priority 2001, published 2005) come the findings set out here.

A short description of one data set: logP (pH 2). Conditions: for logP (pH 2): intermediates of formula (VIIa), Table 6.
Data set [1] has as its system caterpillars of the cabbage moth (Plutella xylostella). In words: Plutella test (Example C). Format: in vivo. Conditions: 500 ppm, after 6 days, cabbage leaves dipped. The method, then: (§1) Plutella test [table] To produce a suitable preparation of active compound, 1 part by weight of active compound is mixed with the stated amounts of solvent and emulsifier, and the concentrate is diluted with emulsifier-containing water to the desired concentration. Cabbage leaves (Brassica oleracea) are treated by being dipped into the preparation of active compound at the desired concentration and are populated with caterpillars of the cabbage moth (Plutella xylostella) while the leaves are still moist. After the desired period of time, the kill in % is determined. 100% means that all of the caterpillars have been killed: 0% denotes that no caterpillars have been killed.

For data set [2], the system named is caterpillars of the army worm (Spodoptera exigua). The experiment in a line: Spodoptera exigua test (Example D). Conditions: 500 ppm, after 6 days, cabbage leaves dipped. In kind it is in vivo. The method, then: as §1, with “Spodoptera exigua Test” for “Plutella test”, “army worm (Spodoptera exigua)” for “cabbage moth (Plutella xylostella)”
Data set [3] has as its system Heliothis virescens caterpillars. The experiment in a line: Heliothis virescens test (Example A). In kind it is in vivo. Conditions: 500 ppm, after 6 days, soya shoots dipped. The method, then: Heliothis virescens Test [table] To produce a suitable preparation of active compound, 1 part by weight of active compound is mixed with the stated amounts of solvent and emulsifier, and the concentrate is diluted with emulsifier-containing water to the desired concentration. Soya shoots (Glycine max) are treated by being dipped into the preparation of active compound at the desired concentration and are populated with Heliothis virescens caterpillars while the leaves are still moist. After the desired period of time, the kill in % is determined. 100% means that all of the caterpillars have been killed: 0% denotes that no caterpillars have been killed.

In the next data set the test system is Lucilia cuprina larvae. The experiment in a line: Blowfly larvae test/development inhibition activity (Example I). In kind it is in vivo. Conditions: 100% = no flies hatched. The method, then: Blowfly Larvae Test/Development Inhibition Activity
(§2) 20 mg of active substance are dissolved in 1 ml of dimethyl sulphoxide; lower concentrations are prepared by dilution with distilled water.
About 20 Lucilia cuprina larvae are introduced into a test tube containing 1 cm^3 of horse meat and 0.5 ml of the test preparation of active compound. The efficacy of the active compound preparation is determined after 24 and 48 hours. The test tubes are transferred to beakers whose bases are covered with sand. After 2 more days, the test tubes are removed and the pupae are counted.
The activity of the active compound preparation is assessed in accordance with the number of flies which have hatched following 1.5 times the development period of an untreated control. 100% means that no flies have hatched; 0% means that all of the flies hatched normally.

Assay in data set [4]: not given
The source holds these as a separate data set.

The test system of data set [5] is caterpillars of the army worm (Spodoptera frugiperda). In words: Spodoptera frugiperda test (Example E). In kind it is in vivo. Conditions: 1000 ppm, after 7 days, cabbage leaves dipped. The method, then: as §1, with “Spodoptera frugiperda Test” for “Plutella test”, “army worm (Spodoptera frugiperda)” for “cabbage moth (Plutella xylostella)”
Data set [6] relates to larvae of the mustard beetle (Phaedon cochleariae). The experiment in a line: Phaedon larvae test (Example B). Format: in vivo. Conditions: 1000 ppm, after 7 days, cabbage leaves dipped. The method, then: as §1, with “Phaedon larvae Test [table]” for “Plutella test [table]”, “with larvae” for “with caterpillars”, “the mustard beetle (Phaedon cochleariae)” for “the cabbage moth (Plutella xylostella)”, “the beetle larvae” for “the caterpillars”, “no beetle larvae” for “no caterpillars”

Data set [7] concerns adult Musca domestica, strain: Reichswald (OP, SP, carbamate resistant). In words: Test with flies (Musca domestica) (Example H). Format: in vivo. The method, then: Test with Flies (Musca domestica)
as §2
[…] After the filter disks have dried, 25 test organisms are transferred to the Petri dishes and covered.
The activity of the active compound preparation is determined after 1, 3, 5, 24 and 48 hours. 100% means that all the flies were killed; 0% means that none of the flies was killed.

The subject of data set [8] is caterpillars of the army worm (Spodoptera frugiperda). In words: Activity duration test: Spodoptera frugiperda (Example G). In kind it is in vivo. Conditions: 20 ppm, cotton plants sprayed. The procedure: (§3) Activity Duration Test: Spodoptera frugiperda [table] To produce a suitable preparation of active compound, 1 part by weight of active compound is mixed with the stated amounts of solvent and emulsifier, and the concentrate is diluted with emulsifier-containing water to the desired concentration. Cotton plants (Gossypium hirsutum) are sprayed with a preparation of the active compound in the desired concentration. After the number of days indicated, caterpillars of the army worm (Spodoptera frugiperda) are placed onto the treated leaves in infection chambers. After the desired period of time, the kill in % is determined. 100% means that all of the caterpillars have been killed: 0% denotes that no caterpillars have been killed.

The test system of data set [9] is Heliothis virescens caterpillars. The experiment in a line: Activity duration test: Heliothis virescens (Example F). Format: in vivo. Conditions: 20 ppm, cotton plants sprayed. The procedure: as §3, with “Heliothis virescens” for “Spodoptera frugiperda”, “indicated, Heliothis virescens” for “indicated,”, “caterpillars” for “caterpillars of the army worm (Spodoptera frugiperda)”

The mark [10] stands for this setting: Concentration 4 μg fly, reading time not given.
Where [11] appears, read: Concentration 20 μg fly, reading time not given.
Setting [12] is: Concentration 100 μg fly, reading time not stated (1, 3, 5, 24 and 48 hours in method).

In general, logP refers to a log measure of how a compound divides between an organic and an aqueous phase. Take `N#Cc1cccc(C(=O)C2CCOC2=O)c1` (stereo not shown): the logP in “logP (pH 2)” is 1.48.
A word on the melting point: it is the temperature, or range, at which the solid turns liquid. `N#Cc1cccc(C2=NN(C(=O)Nc3ccc(OC(F)(F)F)cc3)CCC2n2cc(Cl)cn2)c1` (stereo not shown) [Example 1, 3-(3-cyanophenyl)-4-(4-chloropyrazol-1-yl)-1-(4-trifluoromethoxyphenylamino)carbonyl-1,4,5,6-tetrahydropyridazine] yielded a melting point of 216 °C. In addition, the kill in data set [1] is 100%. The molecule also registered a kill in data set [2] of 100%. In the data set “logP (pH 2)”, the logP was 4.08. The molecule also returned a kill in data set [3] of 100%.
Take `O=C(Nc1ccc(OC(F)(F)F)cc1)N1CCC(n2cc(Cl)cn2)C(c2cccc(Cl)c2)=N1` (stereo not shown) [Example 7]: the “% Activity/Kill” value in the data set with Lucilia cuprina larvae (Concentration 4 ppm) is 0%; with Lucilia cuprina larvae (Concentration 20 ppm), 100%; with Lucilia cuprina larvae (Concentration 100 ppm), 100%; in data set [7] (setting [10]) it was 0%; in data set [7] (setting [11]), 50%; in data set [7] (setting [12]), 99%. Also, the “logP (pH 2)/ m.p. [° C.] (logP part)” value in [4] is 4.73/181. Further, the kill in data set [5] and in data set [6] was 100% in each case.
As to `O=C(Nc1ccc(C(F)(F)F)cc1)N1CCC(n2cc(Cl)cn2)C(c2cccc(Cl)c2)=N1` (stereo not shown) [Example 9], the “% Activity/Kill” value in the data set with Lucilia cuprina larvae (Concentration 20 ppm) was determined as 0%; in the data set on Lucilia cuprina larvae (Concentration 100 ppm), 100%; in [7] (setting [10]), 0%; in data set [7] (setting [11]) it was 85%; in data set [7] (setting [12]), 95%. In addition, the “logP (pH 2)/ m.p. [° C.] (logP part)” value in data set [4] is listed as 4.69/199. For the same molecule, the kill in data set [5] and in data set [6] was 100% throughout.
On to `O=C(Nc1ccc(C(F)(F)F)cc1)N1CCC(n2cc(Cl)cn2)C(c2cccc(Br)c2)=N1` (stereo not shown) [Example 13], for which the kill in data set [1], in data set [2] and in data set [3] was 100% in each case. Moreover, the “logP (pH 2)/ m.p. [° C.] (logP part)” value in data set [4] is 4.77/196.
In the case of `O=C(Nc1ccc(C(F)(F)F)cc1)N1CCC(n2cc(Cl)cn2)C(c2cccc(C(F)(F)F)c2)=N1` (stereo not shown) [Example 14], the kill in [1], in data set [2], in data set [3], in data set [9] (infection after 5 days), in [9] (infection after 12 days) and in data set [9] (infection after 19 days) was 100% in each case. The kill in data set [9] (infection after 26 days) turned out to be 100%. In addition, in data set [4], the “logP (pH 2)/ m.p. [° C.] (logP part)” value is on record as 4.79/176. The “Degree of kill in %” value in data set [8] (infection after 5 days) came to 90%; in data set [8] (infection after 12 days), 80%; in [8] (infection after 19 days) it was 70%; in [8] (infection after 26 days), 90%.
For the molecule `O=C(Nc1ccc(SC(F)(F)F)cc1)N1CCC(n2cc(Cl)cn2)C(c2cccc(F)c2)=N1` (stereo not shown) [Example 15], the kill in data set [1], in data set [2] and in [3] was 100% in each case. The “logP (pH 2)/ m.p. [° C.] (logP part)” value in [4] is on record as 4.81/166. The “Degree of kill in %” value was 90% in [8] (infection after 5 days), 90% in [8] (infection after 12 days), 80% in [8] (infection after 19 days) and 90% in [8] (infection after 26 days).
Turning to `N#Cc1cccc(C2=NN(C(=O)Nc3ccc(SC(F)(F)F)cc3)CCC2n2cc(Cl)cn2)c1` (stereo not shown) [Example 17], the kill in [1], in [2] and in data set [3] was 100% each time. The “logP (pH 2)/ m.p. [° C.] (logP part)” value in data set [4] was 4.44/182.
As for `N#Cc1cccc(C(=O)C(Br)CCCl)c1` (stereo not shown) [Example V-1, 3′-cyano-2-bromo-4-chlorobutyrophenone], the logP in the data set “logP (pH 2)” turned out to be 3.09.
Take `N#Cc1cccc(C2=NNCCC2n2cc(Cl)cn2)c1` (stereo not shown) [II-1, 3-(3-cyanophenyl)-4-(4-chloropyrazol-1-yl)-1,4,5,6-tetrahydropyridazine]: the melting point is 171 °C. This molecule also displayed a logP in “logP (pH 2)” of 2.29.
As to `N#Cc1cccc(C(=O)C(CCCl)n2cc(Cl)cn2)c1` (stereo not shown) [IV-1, 3′-cyano-2-(4-chloropyrazol-1-yl)-4-chlorobutyrophenone], the logP in “logP (pH 2)” is 2.95.
`N#Cc1cccc(C(=O)CCCCl)c1` [VI-1, 3′-cyano-4-chlorobutyrophenone]: in the data set “logP (pH 2)”, the logP was 2.49.
Consider `O=C1OCCC1C(=O)c1cccc(C(F)(F)F)c1` (stereo not shown) [VIIa-2], for which, in the data set “logP (pH 2)”, the “logP (pH 2)” value came to 2.42.
Still for that read-out and setting: the result for `O=C1OCCC1C(=O)c1cccc(F)c1` (stereo not shown) [VIIa-3] reads 1.77.
